Assay results as given in US8247211B2, “Glycopeptide antibiotics” (American Cyanamid Company, priority 2001, dated 2012).
In brackets after ≈: the same amount, converted by molar mass.

Assays:
Test in all cases: In vitro antibacterial evaluation: minimum inhibitory concentration (MIC), broth dilution method
Assay type in all cases: cell-based
[1] = system: Escherichia coli
Procedure, shortened: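 First, organisms are seeded at 5×10^5 CFU/mL into Muller-Hinton II […]. Next, antibiotic is applied across 64-0.06 μg/mL by broth dilution (NCCLS M7-A2). Finally, the lowest inhibitory concentration is recorded as MIC.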

[2] = system: Enterococcus sp.; conditions: for MIC Enterococcus faecalis (GC 2242) / MIC Enterococcus faecalis (GC 4552): 18 hours at 35° C.
Procedure, shortened: (§1)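 Broth dilution per NCCLS M7-A2 in Muller-Hinton II […], inoculum 5×10^5 CFU/mL, antibiotic tested over 64-0.06 μg/mL. MIC is taken as the lowest concentration that inhibits growth. Panel includes recent clinical isolates resistant to methicillin, penicillin and/or vancomycin.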

[3] = system: Streptococcus sp.; conditions: 18 hours at 35° C.
Procedure, shortened: as §1

[4] = system: Staphylococcus sp.; conditions: 18 hours at 35° C.
Procedure, shortened: as §1

[5] = system: Escherichia coli; remark: listed apart in the source

Row | Compound | MIC Escherichia coli (GC 4559) [1] [µg/mL] | MIC Escherichia coli (GC 4560) [1] [µg/mL] | MIC Enterococcus avium (GC 4558) [2] [µg/mL] | MIC Enterococcus faecalis (ATCC 29212) [2] [µg/mL] | MIC Enterococcus faecalis (GC 2242) [2] [µg/mL] | MIC Enterococcus faecalis (GC 4552) [2] [µg/mL] | MIC Enterococcus faecalis (GC 4553) [2] [µg/mL] | MIC Enterococcus faecalis (GC 4554) [2] [µg/mL] | MIC Enterococcus faecium (GC 2243) [2] [µg/mL] | MIC Enterococcus faecium (GC 4556) [2] [µg/mL] | MIC Enterococcus faecium (GC 4557) [2] [µg/mL] | MIC Streptococcus agalactiae (GC 4564) [3] [µg/mL] | MIC Streptococcus pyogenes (ID-3187) [3] [µg/mL] | MIC Coagulase Negative Staphylococcus (GC 4547) [4] [µg/mL] | MIC Coagulase Negative Staphylococcus (GC 4548) [4] [µg/mL] | MIC Coagulase Negative Staphylococcus (GC 4549) [4] [µg/mL] | MIC Coagulase Negative Staphylococcus (GC 4551) [4] [µg/mL] | MIC Staphylococcus aureus (ATCC 29213) [4] [µg/mL] | MIC Staphylococcus aureus (GC 1131) [4] [µg/mL] | MIC Staphylococcus aureus (GC 4541) [4] [µg/mL] | also measured
1 | CC(c1ccc(F)cc1)C1NC(=O)CNC(=O)C(CO)NC(=O)C(C(O)C2CNC(=N)N2C2OC(CO)C(O)C(O)C2O)NC(=O)C(C(O)C2CNC(=N)N2)NC(=O)C(Cc2ccc(OC3OC(CO)C(OC4OC(CO)C(O)C(O)C4O)C(O)C3O)cc2)NC1=O (stereo not drawn) [Example 261a, Cyclo[glycyl-4-fluoro-β-methylphenylalanyl-O-(4-O-hexopyranosylhexopyranosyl)tyrosyl-3-(2-iminoimidazolidin-4-yl)seryl-3-(3-hexopyranosyl-2-iminoimidazolidin-4-yl)serylseryl]] | >64 | >64 | >64 | >64 | >64 | >64 | >64 | >64 | >64 | >64 | >64 | >64 | >64 | >64 | >64 | >64 | >64 | >64 | >64 | >64 | MIC Staphylococcus aureus (GC 4542) [4]: >64 µg/mL; MIC Staphylococcus aureus (GC 4544) [4]: >64 µg/mL; MIC Staphylococcus aureus (GC 4545) [4]: >64 µg/mL; MIC Staphylococcus aureus-SMITH (GC 4543) [4]: >64 µg/mL; MIC Staphylococcus haemolyticus (GC 4546) [4]: >64 µg/mL; MIC Escherichia coli (ATCC 25922) [5]: >64 µg/mL
2 | CC(C)CC(=O)OC1C(OC2C(CO)OC(Oc3ccc(CC4NC(=O)C(C(C)c5ccc(F)cc5)NC(=O)CNC(=O)C(CO)NC(=O)C(C(O)C5CNC(=N)N5C5OC(CO)C(O)C(O)C5O)NC(=O)C(C(O)C5CNC(=N)N5)NC4=O)cc3)C(O)C2O)OC(CO)C(O)C1O (stereo not drawn) [Example 261b, Cyclo[glycyl-4-fluoro-β-methylphenylalanyl-O-[4-O-[2-O-(3-methylbutanoyl)hexopyranosyl]-hexopyranosyl]tyrosyl-3-(2-iminoimidazolidin-4-yl)seryl-3-(3-hexopyranosyl-2-imino-imidazolidin-4-yl)serylseryl]] | >64 | 4 (≈ 2.86 µM) | 64 (≈ 45.8 µM) | >64 | 64 (≈ 45.8 µM) | 64 (≈ 45.8 µM) | 64 (≈ 45.8 µM) | >64 | >64 | 64 (≈ 45.8 µM) | 16 (≈ 11.4 µM) | 8 (≈ 5.72 µM) | 4 (≈ 2.86 µM) | 8 (≈ 5.72 µM) | 4 (≈ 2.86 µM) | 4 (≈ 2.86 µM) | 8 (≈ 5.72 µM) | 8 (≈ 5.72 µM) | 16 (≈ 11.4 µM) | 16 (≈ 11.4 µM) | MIC Staphylococcus aureus (GC 4542) [4]: 16 µg/mL (≈ 11.4 µM); MIC Staphylococcus aureus (GC 4544) [4]: 8 µg/mL (≈ 5.72 µM); MIC Staphylococcus aureus (GC 4545) [4]: 16 µg/mL (≈ 11.4 µM); MIC Staphylococcus aureus-SMITH (GC 4543) [4]: 8 µg/mL (≈ 5.72 µM); MIC Staphylococcus haemolyticus (GC 4546) [4]: 8 µg/mL (≈ 5.72 µM); MIC Escherichia coli (ATCC 25922) [5]: >64 µg/mL
3 | CC(C)CC(=O)OC1C(O)C(CO)OC(OC2C(CO)OC(Oc3ccc(CC4NC(=O)C(C(C)c5ccc(Cl)cc5)NC(=O)CNC(=O)C(CO)NC(=O)C(C(O)C5CNC(=N)N5C5OC(CO)C(O)C(O)C5O)NC(=O)C(C(O)C5CNC(=N)N5)NC4=O)cc3)C(O)C2O)C1O (stereo not drawn) [Example 262b] | >64 | 1 (≈ 0.707 µM) | 16 (≈ 11.3 µM) | 32 (≈ 22.6 µM) | 16 (≈ 11.3 µM) | 32 (≈ 22.6 µM) | 32 (≈ 22.6 µM) | 32 (≈ 22.6 µM) | 16 (≈ 11.3 µM) | 16 (≈ 11.3 µM) | 2 (≈ 1.41 µM) | 1 (≈ 0.707 µM) | 1 (≈ 0.707 µM) | 2 (≈ 1.41 µM) | 1 (≈ 0.707 µM) | 1 (≈ 0.707 µM) | 2 (≈ 1.41 µM) | 4 (≈ 2.83 µM) | 4 (≈ 2.83 µM) | 2 (≈ 1.41 µM) | MIC Coagulase Negative Staphylococcus (GC 4547) ([4]; broth dilution): 2 µg/mL (≈ 1.41 µM); MIC Coagulase Negative Staphylococcus (GC 4548) ([4]; broth dilution): 1 µg/mL (≈ 0.707 µM); MIC Coagulase Negative Staphylococcus (GC 4549) ([4]; broth dilution): 1 µg/mL (≈ 0.707 µM); MIC Coagulase Negative Staphylococcus (GC 4551) ([4]; broth dilution): 2 µg/mL (≈ 1.41 µM); MIC Staphylococcus aureus (ATCC 29213) ([4]; broth dilution): 4 µg/mL (≈ 2.83 µM); MIC Staphylococcus aureus (GC 1131) ([4]; broth dilution): 4 µg/mL (≈ 2.83 µM); MIC Staphylococcus aureus (GC 4541) ([4]; broth dilution): 2 µg/mL (≈ 1.41 µM); MIC Staphylococcus aureus (GC 4542) [4]: 2 µg/mL (≈ 1.41 µM); MIC Staphylococcus aureus (GC 4542) ([4]; broth dilution): 2 µg/mL (≈ 1.41 µM); MIC Staphylococcus aureus (GC 4544) [4]: 4 µg/mL (≈ 2.83 µM); MIC Staphylococcus aureus (GC 4544) ([4]; broth dilution): 4 µg/mL (≈ 2.83 µM); MIC Staphylococcus aureus (GC 4545) [4]: 2 µg/mL (≈ 1.41 µM); MIC Staphylococcus aureus (GC 4545) ([4]; broth dilution): 2 µg/mL (≈ 1.41 µM); MIC Staphylococcus aureus-SMITH (GC 4543) [4]: 1 µg/mL (≈ 0.707 µM); MIC Staphylococcus aureus-SMITH (GC 4543) ([4]; broth dilution): 1 µg/mL (≈ 0.707 µM); MIC Staphylococcus haemolyticus (GC 4546) [4]: 2 µg/mL (≈ 1.41 µM); MIC Staphylococcus haemolyticus (GC 4546) ([4]; broth dilution): 2 µg/mL (≈ 1.41 µM); MIC Escherichia coli (ATCC 25922) [5]: >64 µg/mL
